According to patent US8575201B2 (Boehringer Ingelheim International GmbH, priority 2010, dated 2013):

Experiments:
[1] = target: recombinant human FLAP protein (Homo sapiens (Human), UniProt P20292); assay: FLAP binding assay (Scintillation Proximity Assay, displacement of [125I]L-691,831); details: read-out: FLAP SPA IC50
Procedure, shortened: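 Scintillation proximity displacement of an iodinated (125I) FLAP inhibitor by test compounds, using 100,000×g membrane fraction from lysed cells. Final beads 200 μg/well and protein 5 μg/well; plates shaken 2 h before reading.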

[2] = system: synthesis of LTB4 in human whole blood; assay: Human whole blood LTB4 production inhibition assay; format: cell-based; details: calcimycin stimulated, read-out: hWB LTB4 IC50
Procedure, shortened: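 Readout: plasma LTB4 by antibody-based HTRF. Compound added to heparinized human whole blood, 15 min 37° C; calcimycin 20 μM final (PBS pH 7.4), 30 min 37° C; spun 1500×g 5 min, plasma taken.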

recombinant human FLAP protein, sequence (P20292 whole entry): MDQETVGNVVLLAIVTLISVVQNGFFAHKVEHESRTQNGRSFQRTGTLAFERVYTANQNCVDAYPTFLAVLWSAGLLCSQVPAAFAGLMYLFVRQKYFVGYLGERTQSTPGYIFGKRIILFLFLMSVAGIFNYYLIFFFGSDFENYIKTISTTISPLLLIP

Compound	IC50 [1]	IC50 [2]
Cc1cc(-c2nc(C3(c4ccc(-c5cnc(N)nc5)cn4)CCC3)no2)[nH]n1 [Example 133, 5-(6-{1-[5-(3-methyl-1H-pyrazol-5-yl)-1,2,4-oxadiazol-3-yl]cyclobutyl}pyridin-3-yl)pyrimidin-2-amine]	0.043 µM	0.34 µM
Cn1cc(-c2nc(C3(c4ccc(-c5cnc(N)nc5)cn4)CCC3)no2)cn1 [Example 134, 5-(6-{1-[5-(1-methyl-1H-pyrazol-4-yl)-1,2,4-oxadiazol-3-yl]cyclobutyl}pyridin-3-yl)pyrimidin-2-amine]	0.081 µM	0.79 µM
Cc1cc(-c2nc(C3(c4ccc(-c5cnc(N)nc5)cn4)CCOCC3)no2)n(C)n1 [Example 136, 5-(6-{4-[5-(1,3-dimethyl-1H-pyrazol-5-yl)-1,2,4-oxadiazol-3-yl]tetrahydro-2H-pyran-4-yl}pyridin-3-yl)pyrimidin-2-amine]	0.54 µM	> 5 µM
Nc1ncc(-c2ccc(C3(c4noc(-c5cccnc5)n4)CCOCC3)nc2)cn1 [Example 137, 5-(6-{4-[5-(pyridin-3-yl)-1,2,4-oxadiazol-3-yl]tetrahydro-2H-pyran-4-yl}pyridin-3-yl)pyrimidin-2-amine]	0.58 µM	3 µM
Nc1ncc(-c2ccc(C3(c4noc(-c5ccncc5)n4)CCOCC3)nc2)cn1 [Example 138, 5-(6-{4-[5-(pyridin-4-yl)-1,2,4-oxadiazol-3-yl]tetrahydro-2H-pyran-4-yl}pyridin-3-yl)pyrimidin-2-amine]	0.97 µM	> 5 µM
CN(C(=O)Cn1cc(-c2nc(C3(c4ccc(-c5cnc(N)nc5)nc4)CCC3)no2)cn1)C(C)(C)C [Example 143, 2-[4-(3-{1-[6-(2-aminopyrimidin-5-yl)pyridin-3-yl]cyclobutyl}-1,2,4-oxadiazol-5-yl)-1H-pyrazol-1-yl]-N-tert-butyl-N-methylacetamide]	0.014 µM	0.26 µM
CC(C)(O)Cn1cc(-c2nc(C3(c4ccc(-c5cnc(N)cn5)nc4)CCC3)no2)cn1 [Example 146, 1-[4-(3-{1-[6-(5-amino-pyrazin-2-yl)-pyridin-3-yl]-cyclobutyl}-[1,2,4]oxadiazol-5-yl)-pyrazol-1-yl]-2-methyl-propan-2-ol]	0.015 µM	0.043 µM

More lines, now with the values ahead:

IC50 [1]	IC50 [2]	Compound
0.028 µM	0.34 µM	Nc1ncc(-c2ccc(C3(c4noc(-c5cnn(C6CCS(=O)(=O)C6)c5)n4)CCC3)cn2)cn1 (centres unmarked) [Example 139, 5-[5-(1-{5-[1-(1,1-dioxidotetrahydrothiophen-3-yl)-1H-pyrazol-4-yl]-1,2,4-oxadiazol-3-yl}cyclobutyl)pyridin-2-yl]pyrimidin-2-amine]
0.015 µM	0.11 µM	Nc1ncc(-c2ccc(C3(c4noc(-c5cnn(CCN6CCOCC6)c5)n4)CCC3)cn2)cn1 [Example 140, 5-{5-[1-(5-{1-[2-(morpholin-4-yl)ethyl]-1H-pyrazol-4-yl}-1,2,4-oxadiazol-3-yl)cyclobutyl]pyridin-2-yl}pyrimidin-2-amine]
0.011 µM	0.085 µM	N#CCn1cc(-c2nc(C3(c4ccc(-c5cnc(N)nc5)nc4)CCC3)no2)cn1 [Example 141, [4-(3-{1-[6-(2-aminopyrimidin-5-yl)pyridin-3-yl]cyclobutyl}-1,2,4-oxadiazol-5-yl)-1H-pyrazol-1-yl]acetonitrile]
0.016 µM	0.25 µM	CN(C)CCn1cc(-c2nc(C3(c4ccc(-c5cnc(N)nc5)nc4)CCC3)no2)cn1 [Example 142, 5-{5-[1-(5-{1-[2-(dimethylamino)ethyl]-1H-pyrazol-4-yl}-1,2,4-oxadiazol-3-yl)cyclobutyl]pyridin-2-yl}pyrimidin-2-amine]
0.0083 µM	0.029 µM	Nc1cnc(-c2ccc(C3(c4noc(-c5cnn(C6COC6)c5)n4)CCC3)cn2)cn1 [Example 145]
0.065 µM	0.34 µM	CC(C)(Cn1cc(-c2nc(C3(c4ccc(-c5cnc(N)nc5)nc4)CCC3)no2)cn1)C(N)=O [Example 147, 3-[4-(3-{1-[6-(2-amino-pyrimidin-5-yl)-pyridin-3-yl]-cyclobutyl}-[1,2,4]oxadiazol-5-yl)-pyrazol-1-yl]-2,2-dimethyl-propionamide]
